Data set [1] has as its target T1, (Homo sapiens, UniProt P51532).
T1 construct: P51532, residues 1448–1569 with additional N-terminal SM residues; GST (TEV site) (N); His6 (TEV site) (N, cleaved yes); made in house; host or cells: SMARCA4^BD: Escherichia coli BL21(DE3)
Description: TR-FRET ternary complex affinity and cooperativity, SMARCA4. It counts as binding.

Another data set deals with NCI-H1568 cells. As to the kind of experiment: Cell viability assay (CellTiter Glo) in NCI-H1568.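 As to % Viability: percent of DMSO-treated control cells.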 It counts as cell-based, human. The note with it: for IC50: NCI-H1568, (18h), CellTiter Glo, individual replicates, read-out: NCI-H1568 (18h) CTG. Here is the method: 500–2000 cells were seeded in white, clear bottom 96-well plates (Corning or Perkin Elmer) in 180–200 µl medium per well. The next day, compounds were added using a digital dispenser and a T0 sample was measured for reference. […], and viability (luminescence) was measured using CellTiter Glo or CellTiter Glo 2.0 (Promega) according to manufacturer’s instructions after equilibrating cells and reagents at room temperature and 10–20 min incubation time while shaking.
(Cellular ATP, detected with luciferase, serves as a proxy for viable cell number.)

The target of data set [2] is T2, SMARCA2 (Homo sapiens, UniProt P51531). Description: SMARCA2 capillary electrophoresis protein assay in RKO cells. It counts as cell-based. The arrangement: endogenous in cells; host or cells: RKO, NCI-H1568, A549, HCT116, LU99, HCC-364, HCT-15, HCC4006, SK-N-AS. The method, then:
130,000–200,000 cells were seeded in 24-well plates and incubated until settled down or overnight. Compounds were dissolved in DMSO and added to cells in indicated concentrations using a digital dispenser following an optional media change. […] For SMARCA2/4 half-life determination, 150,000 or 200,000 cells were seeded in 24-well plates. […] For SMARCA2/4 re-synthesis measurements, 200,000 cells were seeded in 24-well plates. […] Medium was removed, cells were washed with PBS and lysed with 80 µl Lysis Buffer (MSD Tris Lysis Buffer (#R60TX-2) + Halt Inhibitor Cocktail (100x) + Benzonase 0.5 µL/ml). Samples were frozen at −80 °C and thawed at room temperature before use. Samples were transferred to a V-bottom plate and insoluble debris was pelleted by centrifugation for 5 min at maximum speed. The supernatant was transferred to a fresh plate. Master Mix and Ladder were prepared according to manufacturer’s instructions for 12–230 kDa Wes Separation Module, 8 × 25 capillary cartridges, Protein Simple #SM-W004 with Anti-Rabbit Detection Module for Wes, Peggy Sue or Sally Sue, Protein Simple #DM-001. 4.8 µl lysate were mixed with 1.2 µl Master Mix to achieve a protein concentration of ~0.5 µg/µl. […] Wes plates were prepared and run according to manufacturer’s instructions. Proteins were quantified with accompanying Compass Software. SMARCA2/4 protein levels were normalised to GAPDH. […] Where applicable, curves were fitted using a 4-parametric logistic model.

The target of data set [3] is T2, SMARCA2. As to the kind of experiment: Imaging-based SMARCA2 protein assay in RKO cells. It counts as cell-based. Set-up: endogenous in cells; host or cells: RKO, NCI-H1568, A549, HCT116, LU99, HCC-364, HCT-15, HCC4006, SK-N-AS. Conditions: individual replicates. Here is the method:
1250 cells per well in 60 µl medium were plated in flat bottom, poly-lysin coated 384-well plates (CellCarrier Ultra, Perkin Elmer). The next day, test compounds (10 µl of serial dilutions) and DMSO controls were diluted in DMEM medium such that the final DMSO content was <1% or were added using an ultrasound dispensing system. 4 wells were reserved for a background measurement. […] After aspirating the fixing solution, the cells were washed once with 25 µl PBS. 25 µl of blocking buffer (10% goat serum in PBS) was added and cells were incubated for 30 min, then washed once with PBS. […] Cells were again washed once with PBS. […] The cell layer was then washed once with 25 µl PBS, the wells were filled with 25 µl PBS and the plates were sealed with an adhesive sheet. They were then imaged on the Opera Phoenix (mean intensity in the nucleus). […] EC50 values were computed using a 4-parametric logistic model.

[4] abbreviates: TR-FRET competition for SMARCA4BD, without VCB, mean ± SD, read-out: TR-FRET SMARCA4BD EC50.
The mark [5] stands for this setting: binary, PROTAC alone, individual replicates, read-out: SMARCA4 BD EC50.
The mark [6] stands for this setting: 4h, read-out: RKO (4h) SMARCA2 DC50.
The mark [7] stands for this setting: 18h, read-out: RKO (18h) SMARCA2 DC50.
[8] abbreviates: Homo sapiens, NCI-H1568, […], read-out: EC50 cell proliferation (CellTiter Glo).

Several values for one entry are separate records, joined by “and”; a condition that tells them apart may be missing. Equal entries are not always repeated. Where two headings read alike, the source gives them in different places. A value given as a limit tells only on which side of the number the result lay.

T1 sequence (P51532 1448-1569): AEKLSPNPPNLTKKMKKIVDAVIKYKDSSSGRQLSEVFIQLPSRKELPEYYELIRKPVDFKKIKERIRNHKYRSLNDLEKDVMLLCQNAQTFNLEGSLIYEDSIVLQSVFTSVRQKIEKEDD
T2 sequence (P51531 whole entry): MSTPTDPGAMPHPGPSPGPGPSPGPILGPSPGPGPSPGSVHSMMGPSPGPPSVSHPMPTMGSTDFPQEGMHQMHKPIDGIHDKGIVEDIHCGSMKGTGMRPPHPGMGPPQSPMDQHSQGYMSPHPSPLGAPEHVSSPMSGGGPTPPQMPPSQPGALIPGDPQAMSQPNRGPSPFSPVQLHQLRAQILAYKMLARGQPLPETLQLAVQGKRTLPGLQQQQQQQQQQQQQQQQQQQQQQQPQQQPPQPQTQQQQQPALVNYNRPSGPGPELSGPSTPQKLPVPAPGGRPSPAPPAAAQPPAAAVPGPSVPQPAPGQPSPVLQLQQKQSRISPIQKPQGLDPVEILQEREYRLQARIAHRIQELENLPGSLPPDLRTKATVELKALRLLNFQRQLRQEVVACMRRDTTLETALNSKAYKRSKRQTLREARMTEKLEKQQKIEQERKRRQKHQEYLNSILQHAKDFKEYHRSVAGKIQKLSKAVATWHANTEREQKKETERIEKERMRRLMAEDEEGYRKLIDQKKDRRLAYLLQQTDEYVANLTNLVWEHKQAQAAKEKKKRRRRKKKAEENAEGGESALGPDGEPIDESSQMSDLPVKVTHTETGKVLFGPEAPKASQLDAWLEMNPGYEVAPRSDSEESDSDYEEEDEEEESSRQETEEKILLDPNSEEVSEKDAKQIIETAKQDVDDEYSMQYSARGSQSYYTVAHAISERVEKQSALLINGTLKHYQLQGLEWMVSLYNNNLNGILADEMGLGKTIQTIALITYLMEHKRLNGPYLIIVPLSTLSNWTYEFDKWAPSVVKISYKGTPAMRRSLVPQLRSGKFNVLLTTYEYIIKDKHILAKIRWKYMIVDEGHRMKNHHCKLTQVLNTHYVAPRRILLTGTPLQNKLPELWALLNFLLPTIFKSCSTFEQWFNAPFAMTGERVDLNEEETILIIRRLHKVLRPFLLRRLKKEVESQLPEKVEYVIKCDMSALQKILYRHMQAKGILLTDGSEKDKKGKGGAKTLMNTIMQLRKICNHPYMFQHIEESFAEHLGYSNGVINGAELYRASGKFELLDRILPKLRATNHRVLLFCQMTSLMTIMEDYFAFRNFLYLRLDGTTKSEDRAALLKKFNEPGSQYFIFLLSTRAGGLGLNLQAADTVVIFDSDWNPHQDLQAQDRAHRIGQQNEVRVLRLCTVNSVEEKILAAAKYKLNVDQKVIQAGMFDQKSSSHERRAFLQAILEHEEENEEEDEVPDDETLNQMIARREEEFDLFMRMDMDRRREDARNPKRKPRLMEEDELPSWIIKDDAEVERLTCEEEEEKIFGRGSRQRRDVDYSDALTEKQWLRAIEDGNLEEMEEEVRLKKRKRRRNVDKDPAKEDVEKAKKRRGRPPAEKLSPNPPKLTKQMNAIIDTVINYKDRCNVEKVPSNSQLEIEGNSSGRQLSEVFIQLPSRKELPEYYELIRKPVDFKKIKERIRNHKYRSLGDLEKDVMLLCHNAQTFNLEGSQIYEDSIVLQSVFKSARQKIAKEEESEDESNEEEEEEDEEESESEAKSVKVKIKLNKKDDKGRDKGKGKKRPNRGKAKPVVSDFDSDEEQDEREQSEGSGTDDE

Take `Cc1ncsc1-c1ccc(C(CCC(C)CCN2CCC(c3ccc4c(c3)n(C3CCCC3)c3nc(=O)c5c(Br)cccc5n43)CC2)NC(=O)C2CC(O)CN2C(=O)C(NC(=O)C2(F)CC2)C(C)(C)C)cc1` (stereo not drawn) [ACBI2]: the EC50 is 314 ± 121 nM in data set [1] (setting [4]); 308 nM and 459 nM and 220 nM in data set [1] (setting [5]); 7 nM in the data set on NCI-H1568 cells (Homo sapiens, NCI-H1568, assay not given, read-out: EC50); 7.43 nM in the data set on NCI-H1568 cells (Homo sapiens, NCI-H1568, read-out: LogEC50 (viability) (converted)); 7.43 nM in the data set with NCI-H1568 cells (Homo sapiens, NCI-H1568, values derived from curves in Extended Fig 4b, read-out: EC50 mean). For the same compound, in the data set on NCI-H1568 cells (NCI-H1568), the “Bottom (% Viability, four-parameter fit)” value was found to be 1.886%. For the same compound, the “HillSlope (viability)” value in the data set on NCI-H1568 cells (NCI-H1568) is recorded as -1.08. The “Top (% Viability, four-parameter fit)” value in the data set with NCI-H1568 cells (NCI-H1568) is on record as 95.68%. In addition, in the data set on NCI-H1568 cells, the IC50 was 6.58 nM and 10.7 nM and 3.99 nM and 10.8 nM and 11.1 nM and 3.71 nM. The “% Viability” value with NCI-H1568 cells (NCI-H1568, log10 conc -5 mol/l) was -0.296% and -0.02611% and -0.1217% and 0.4768% and -0.2501%; in the data set on NCI-H1568 cells (NCI-H1568, log10 conc -5.30103 mol/l), -0.06113% and -0.2267%; in the data set on NCI-H1568 cells (NCI-H1568, log10 conc -5.50031 mol/l), 0.1326% and 0.2417% and 0.02451% and 0.1536% and 0.8908%; in the data set with NCI-H1568 cells (NCI-H1568, log10 conc -5.90309 mol/l), 0.4837%; with NCI-H1568 cells (NCI-H1568, log10 conc -6.50446 mol/l) it was 2.441% and 0.7903%; in the data set with NCI-H1568 cells (NCI-H1568, log10 conc -7.10735 mol/l), 8.308% and 6.732%. Also, the “% Viability” value in the data set on NCI-H1568 cells (NCI-H1568, log10 conc -8.31158 mol/l) was 56.5669% and 89.3041%; with NCI-H1568 cells (NCI-H1568, log10 conc -8.91364 mol/l), 76.9492% and 107.085%; in the data set on NCI-H1568 cells (NCI-H1568, log10 conc -9.5157 mol/l) it was 76.1437% and 99.3609%; with NCI-H1568 cells (NCI-H1568, log10 conc -10 mol/l) it was 102.65% and 94.5594% and 117.406% and 60.7547% and 106.867%; in the data set on NCI-H1568 cells (NCI-H1568, log10 conc -10.1175 mol/l), 83.2326% and 93.6592%; in the data set with NCI-H1568 cells (NCI-H1568, log10 conc -10.5003 mol/l), 109.307% and 95.7558% and 110.528% and 76.6212%. In addition, the DC50 on SMARCA2 [2] (RKO (4 h), mean ± SD) was 4 ± 1 nM; at SMARCA2 [2] (RKO cells, time not stated at the place (Supplementary Data 2)), 1 nM; at SMARCA2 [3] (setting [6]) it was 3.55 nM and 1.63 nM and 1.77 nM and 3.45 nM and 4.01 nM and 4.03 nM and 3.11 nM; at SMARCA2 [3] (setting [7]), 2 nM and 2.28 nM and 1.37 nM and 1.63 nM and 1.15 nM and 1.22 nM and 1.53 nM and 0.997 nM and 1.43 nM and 0.892 nM. For the same compound, the “window of SMARCA2 over SMARCA4 degradation” value at SMARCA2 [2] (RKO cells) was above 30 fold. For the same compound, the Dmax on SMARCA2 [2] (RKO, RKO (4 h), mean ± SD) amounted to 71 ± 2%; at SMARCA2 [2] (RKO, RKO (18 h), mean ± SD) it was 81 ± 7%. On SMARCA2 [2] (RKO, SM2), the “Bottom (% protein remaining, four-parameter fit)” value was found to be 21.72%. Moreover, at SMARCA2 [2] (RKO, SM2), the “HillSlope (protein remaining)” value was -0.9367. Moreover, the “Top (% protein remaining, four-parameter fit)” value at SMARCA2 [2] (RKO, SM2) is reported as 158.8%.

Take `Cc1ncsc1-c1ccc([C@H](CCCCCN2CCC(c3ccc4c(c3)n(C3CCCC3)c3nc(=O)c5c(Br)cccc5n43)CC2)NC(=O)[C@@H]2C[C@@H](O)CN2C(=O)[C@@H](NC(=O)C2(F)CC2)C(C)(C)C)cc1` [compound 11]: the EC50 in data set [1] (setting [4]) is 279 ± 40 nM; in data set [1] (setting [5]), 241 nM and 322 nM and 280 nM; in the data set with NCI-H1568 cells (setting [8]), 7 ± 3 nM. In the data set with NCI-H1568 cells, the IC50 was 8.72 nM and 10.4 nM and 5.64 nM and 9.09 nM and 2.95 nM and 6.31 nM. Also, the DC50 at SMARCA2 [2] (RKO (4 h), mean ± SD) is 2 ± 1 nM; at SMARCA2 [2] (RKO (18 h), mean ± SD), 1 ± 0.1 nM; at SMARCA2 [3] (setting [6]), 1.71 nM and 0.766 nM and 2.04 nM and 3.68 nM; at SMARCA2 [3] (setting [7]), 0.942 nM and 1.07 nM and 0.993 nM and 0.885 nM. In addition, the Dmax on SMARCA2 [2] (RKO, RKO (4 h), mean ± SD) amounted to 73 ± 6%; on SMARCA2 [2] (RKO, RKO (18 h), mean ± SD) it was 87 ± 2%. In addition, the “SMARCA2/4 selectivity improvement on linker elongation (compound 11 compared with compound 6)” value on SMARCA2 [2] (all-carbon linker series) is listed as “two- to threefold”.

Take `O=c1nc2n(C3CCCC3)c3ccccc3n2c2cccc(Br)c12` [compound 1]: the EC50 was 857 ± 64 nM in data set [1] (setting [4]); 800 nM and 849 nM and 927 nM in data set [1] (setting [5]); 1100 nM with NCI-H1568 cells (setting [8]). In addition, the DC50 at SMARCA2 [2] (RKO (4 h), mean ± SD) is above 25000 nM; at SMARCA2 [2] (RKO (18 h), mean ± SD), above 25000 nM; on SMARCA2 [3] (setting [6]) it was above 25000 nM; at SMARCA2 [3] (setting [7]) it was above 25000 nM.

As to `Cc1ncsc1-c1ccc(CNC(=O)[C@@H]2C[C@@H](O)CN2C(=O)[C@@H](NC(=O)C2(F)CC2)C(C)(C)C)c(OCCCCN2CCC(c3ccc4c(c3)n(C3CCCC3)c3nc(=O)c5c(Br)cccc5n43)CC2)c1` [compound 23], the EC50 is 174 ± 21 nM in data set [1] (setting [4]); 148 nM and 197 nM and 173 nM and 183 nM in data set [1] (setting [5]); 104 ± 27 nM in the data set with NCI-H1568 cells (NCI-H1568 ([…]), mean ± SD, read-out: EC50 cell proliferation (CellTiter Glo)). The IC50 in the data set on NCI-H1568 cells was 133 nM and 78.5 nM and 108 nM. Besides, the DC50 at SMARCA2 [2] (RKO (4 h), mean ± SD) is above 25000 nM; at SMARCA2 [2] (RKO (18 h), mean ± SD) it was 39 ± 10 nM; at SMARCA2 [3] (setting [7]), 30 nM and 50 nM and 40 nM. At SMARCA2 [2] (RKO (18 h), mean ± SD), the “SMARCA2 Dmax” value is reported as 37 ± 5%.

The values are drawn from article PMC9551036, “A selective and orally bioavailable VHL-recruiting PROTAC achieves SMARCA2 degradation in vivo” (Nature Communications, 2022).
